According to patent US8134015B2, “Compound inhibiting in vivo phosphorous transport and medicine containing the same” (Kyowa Hakko Kirin Co., Ltd., priority 2003, dated 2012):

Target: T1, rat NaPi-2b (Rattus norvegicus, UniProt Q9JJ09)
T1 construct: expressed in transfected cells; host or cells: Xenopus oocytes injected with cRNA
T1 sequence (Q9JJ09 1-695): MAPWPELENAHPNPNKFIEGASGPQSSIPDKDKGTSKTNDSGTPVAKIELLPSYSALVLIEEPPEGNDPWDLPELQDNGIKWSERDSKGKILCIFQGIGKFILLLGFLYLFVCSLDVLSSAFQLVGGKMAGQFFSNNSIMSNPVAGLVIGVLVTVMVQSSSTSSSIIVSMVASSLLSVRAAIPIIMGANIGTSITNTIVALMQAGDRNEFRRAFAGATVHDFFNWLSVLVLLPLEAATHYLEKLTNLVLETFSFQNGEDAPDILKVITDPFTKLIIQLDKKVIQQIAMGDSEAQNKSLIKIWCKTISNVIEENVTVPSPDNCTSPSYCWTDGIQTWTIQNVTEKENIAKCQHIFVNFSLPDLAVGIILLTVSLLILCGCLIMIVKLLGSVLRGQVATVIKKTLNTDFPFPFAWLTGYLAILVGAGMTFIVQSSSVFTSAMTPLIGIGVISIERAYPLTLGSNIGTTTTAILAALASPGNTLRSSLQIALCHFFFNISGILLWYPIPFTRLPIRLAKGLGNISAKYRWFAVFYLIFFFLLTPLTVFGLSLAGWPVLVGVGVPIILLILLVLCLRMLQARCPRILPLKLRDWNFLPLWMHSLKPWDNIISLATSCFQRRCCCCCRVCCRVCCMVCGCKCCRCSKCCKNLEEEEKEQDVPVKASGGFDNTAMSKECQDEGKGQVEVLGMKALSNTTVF
Experiment: Sodium-dependent phosphate uptake of Xenopus oocytes which expressed NaPi-2b (32P)
Format: cell-based
Conditions: Xenopus oocytes expressing rat NaPi-2b, 32P radioactive phosphorus; read-out: IC50 (phosphate uptake inhibitory activity)
In short: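 Read-out is 32P phosphate uptake into Xenopus oocytes expressing rat intestinal NaPi-2b (cRNA injection, 2-day culture). Inhibition at 300 μM and 100 μM was derived from a single inhibition curve and given as percent.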

SMILES	IC50
CC(O)CN(Cc1cccc(C(=O)Nc2sccc2C(=O)N/N=C/c2ccc(F)cc2)c1)CC(C)O (stereo not shown) [Compound 672, 3-{[Bis-(2-hydroxy-propyl)-amino]-methyl}-N-[3-(4-fluoro-benzylidene-hydrazinocarbonyl)-thiophen-2-yl]-benzamide]	31.2 µM
CC(O)CN(Cc1cccc(C(=O)Nc2sccc2C(=O)N/N=C/c2cccc(F)c2)c1)CC(C)O (stereo not shown) [Compound 673, 3-{[Bis-(2-hydroxy-propyl)-amino]-methyl}-N-[3-(3-fluoro-benzylidene-hydrazinocarbonyl)-thiophen-2-yl]-benzamide]	10.1 µM
CCN(CC)CCN(C)Cc1cccc(-c2nc3sc4c(c3c(=O)n2/N=C/c2ccc(OC)cc2)CCCC4)c1 [Compound 675, 2-(3-{[(2-Diethylamino-ethyl)-methyl-amino]-methyl}-phenyl)-3-[(4-methoxy-benzylidene-)-amino]-5,6,7,8-tetrahydro-3H-benzo[4,5]thieno[2,3-d]pyrimidin-4-one]	< 3 µM
Cc1ccc(/C=N/NC(=O)c2cc(Br)ccc2NC(=O)c2cccc(CS(=O)(=O)CCO)c2)cc1 [Compound 676, N-[4-Bromo-2-(4-methyl-benzylidene-hydrazinocarbonyl)-phenyl]-3-(2-hydroxy-ethanesulfonylmethyl)-benzamide]	< 3 µM
Cc1ccc(/C=N/NC(=O)c2cc(Br)ccc2NC(=O)c2cccc(C[S+]([O-])CCO)c2)cc1 (stereo not shown) [Compound 677, N-[4-Bromo-2-(4-methyl-benzylidene-hydrazinocarbonyl)-phenyl]-3-(2-hydroxy-ethanesulfinylmethyl)-benzamide]	< 3 µM
O=C(Nc1ccc(Br)cc1C(=O)N/N=C/c1ccc(Cl)c(C(F)(F)F)c1)c1cccc(CS(=O)(=O)CCO)c1 [Compound 678, N-[4-Bromo-2-(4-chloro-3-trifluoromethyl-benzylidene-hydrazinocarbonyl)-phenyl]-3-(2-hydroxy-ethanesulfonylmethyl)-benzamide]	< 3 µM
O=C(Nc1ccc(Br)cc1C(=O)N/N=C/c1ccc(Cl)c(C(F)(F)F)c1)c1cccc(C[S+]([O-])CCO)c1 (stereo not shown) [Compound 679, N-[4-Bromo-2-(4-chloro-3-trifluoromethyl-benzylidene-hydrazinocarbonyl)-phenyl]-3-(2-hydroxy-ethanesulfinylmethyl)-benzamide]	< 3 µM
O=C(Nc1ccc(Cl)cc1C(=O)N/N=C/c1cccc(F)c1)c1cccc(CSCc2ccco2)c1 [Compound 680, N-[4-Chloro-2-(3-fluoro-benzylidene-hydrazinocarbonyl)-phenyl]-3-(furan-2-ylmethylsulfanylmethyl)-benzamide]	4.04 µM
O=C(Nc1ccc(Cl)cc1C(=O)N/N=C/c1ccc(F)cc1)c1cccc(CSCc2ccco2)c1 [Compound 681, N-[4-Chloro-2-(4-fluoro-benzylidene-hydrazinocarbonyl)-phenyl]-3-(furan-2-ylmethylsulfanylmethyl)-benzamide]	25.9 µM
Cc1ccc(/C=N/NC(=O)c2cc(Cl)ccc2NC(=O)c2cccc(CSCc3ccco3)c2)cc1 [Compound 682, N-[4-Chloro-2-(4-methyl-benzylidene-hydrazinocarbonyl)-phenyl]-3-(furan-2-ylmethylsulfanylmethyl)-benzamide]	12.5 µM
Cc1ccc(/C=N/NC(=O)c2cc(Cl)ccc2NC(=O)c2cccc(CSCc3ccco3)c2)cc1C [Compound 683, N-[4-Chloro-2-(3,4-dimethyl-benzylidene-hydrazinocarbonyl)-phenyl]-3-(furan-2-ylmethylsulfanylmethyl)-benzamide]	< 3 µM
Cc1ccc(/C=N/NC(=O)c2cc(Cl)ccc2NC(=O)c2cccc(CN(C)CCCN(C)Cc3cccc(C(=O)Nc4ccc(Cl)cc4C(=O)N/N=C/c4ccc(C)c(C)c4)c3)c2)cc1C [Compound 684, N1-[4-Chloro-2-({2-[(E)-1-(3,4-dimethylphenyl)methylidene]hydrazino}carbonyl}phenyl}-3-{[{3-[(3-{[4-chloro-2-({2-[(E)-1-(3,4-dimethylphenyl)methylidene]hydrazino}carbonyl}anilino}carbonyl}benzyl}(methyl)amino)propyl](methyl)amino)methyl)benzamide]	54.3 µM
CN(CCCN(C)Cc1cccc(C(=O)Nc2ccc(Cl)cc2C(=O)N/N=C/c2cccc(F)c2)c1)Cc1cccc(C(=O)Nc2ccc(Cl)cc2C(=O)N/N=C/c2cccc(F)c2)c1 [Compound 685, N1-[4-Chloro-2-({2-[(E)-1-(3-fluorophenyl)methylidene]hydrazino}carbonyl}phenyl}-3-{[{3-[(3-{[4-chloro-2-({2-[(E)-1-(3-fluorophenyl)methylidene]hydrazino}carbonyl}-anilino}carbonyl}benzyl}(methyl)amino)propyl)(methyl)amino]methyl]-benzamide]	36.4 µM
Cc1ccc(/C=N/NC(=O)c2cc(Cl)ccc2NC(=O)c2cccc(CS(=O)(=O)Cc3ccco3)c2)cc1C [Compound 686, N-[4-Chloro-2-(3,4-dimethyl-benzylidene-hydrazinocarbonyl)-phenyl]-3-(furan-2-ylmethanesulfonylmethyl)-benzamide]	< 3 µM
Cc1ccc(/C=N/NC(=O)c2cc(Cl)ccc2NC(=O)c2cccc(C[S+]([O-])Cc3ccco3)c2)cc1C (stereo not shown) [Compound 687, N-[4-Chloro-2-(3,4-dimethyl-benzylidene-hydrazinocarbonyl)-phenyl]-3-(furan-2-ylmethanesulfinylmethyl)-benzamide]	< 3 µM
O=C(Nc1ccc(Cl)cc1C(=O)N/N=C/c1ccc(Cl)c(C(F)(F)F)c1)c1cccc(CS(=O)(=O)Cc2ccco2)c1 [Compound 688, N-[4-Chloro-2-(4-chloro-3-trifluoromethyl-benzylidene-hydrazinocarbonyl)-phenyl]-3-(furan-2-ylmethanesulfonylmethyl)-benzamide]	< 3 µM
O=C(Nc1ccc(Cl)cc1C(=O)N/N=C/c1ccc(Cl)c(C(F)(F)F)c1)c1cccc(C[S+]([O-])Cc2ccco2)c1 (stereo not shown) [Compound 689, N-[4-Chloro-2-(4-chloro-3-trifluoromethyl-benzylidene-hydrazinocarbonyl)-phenyl]-3-(furan-2-ylmethanesulfinylmethyl)-benzamide]	< 3 µM
CN(CCCCCCN(C)Cc1cccc(C(=O)Nc2ccc(Cl)cc2C(=O)N/N=C/c2ccc(Cl)c(C(F)(F)F)c2)c1)Cc1cccc(C(=O)Nc2ccc(Cl)cc2C(=O)N/N=C/c2ccc(Cl)c(C(F)(F)F)c2)c1 [Compound 690, N1-[4-Chloro-2-({2-[(E)-1-(4-chloro-3-trifluoromethyl-phenyl)methylidene]hydrazino}carbonyl)phenyl)-3-{[{6-[(3-{[4-chloro-2-({2-[(E)-1-(4-chloro-3-trifluoromethyl-phenyl)methylidene]hydrazino}-carbonyl}anilino}carbonyl}benzyl}(methyl)amino)hexyl)(methyl)amino]-methyl]benzamide]	88 µM

Same assay, conditions: phosphate uptake, oocytes expressing rat NaPi-2b; 300 μM, determined from inhibition curve

SMILES	inhibition at 300 µM
CCN(CC)CCN(C)Cc1cccc(-c2nc3sc4c(c3c(=O)n2/N=C/c2ccc(Cl)c(C(F)(F)F)c2)CCCC4)c1 [Compound 674, 3-[(4-Chloro-3-trifluoromethyl-benzylidene)-amino]-2-(3-{[(2-diethylamino-ethyl)-methyl-amino]-methyl}-phenyl)-5,6,7,8-tetrahydro-3H-benzo[4,5]thieno[2,3-d]pyrimidin-4-one]	85.1%
